The source of these data is patent US20260102359A1, “COMBINATION TREATMENT OF DERMAL AND TRANSDERMAL FIBROTIC DISEASES, DISORDERS AND ASSOCIATED PAIN AND INFLAMMATION” (ERESINA, LLC, priority 2022, published 2026).

Counter-ions that a name gives are not always drawn.

This series concerns hDMFa myofibroblast cells.

For `C=C1C(=O)O[C@@H]2/C=C(\C)CC/C=C(\C)CC[C@@H]12` [Cmpd 292, Costunolide], the “Compound Myofibroblast Cytotoxicity Activity” value is recorded as “+++”.

In the case of `COc1cccc2c1C(=O)c1c(O)c3c(c(O)c1C2=O)C[C@@](O)(C(C)=O)C[C@@H]3O[C@H]1C[C@H](N)[C@H](O)[C@H](C)O1` [Cmpd 329, Daunorubicin HCl], the “Compound Myofibroblast Cytotoxicity Activity” value was “+++”. For `Cc1coc2c1C(=O)C(=O)c1c-2ccc2c1CCCC2(C)C` [Cmpd 913, Tanshinone IIA], the “Compound Myofibroblast Cytotoxicity Activity” value is given as “+++++”. For the molecule `O=C(c1ccc(OCCN2CCCCC2)cc1)c1c(-c2ccc(O)cc2)sc2cc(O)ccc12` [Cmpd 819, Raloxifene HCl], the “Compound Myofibroblast Cytotoxicity Activity” value is “++++”.

For the molecule `CC(=O)Nc1c(I)c(NC(C)=O)c(I)c(C(=O)O)c1I` [Cmpd 348, Diatrizoic acid], the “Compound Myofibroblast Cytotoxicity Activity” value was “++”.

For `CC(=O)c1c(C)c2cnc(Nc3ccc(N4CCNCC4)cn3)nc2n(C2CCCC2)c1=O.O=S(=O)(O)CCO` [Cmpd 753, Palbociclib (PD0332991) Isethionate], the “Compound Myofibroblast Cytotoxicity Activity” value is reported as “+++++”. For `CN(C/C=C/C#CC(C)(C)C)Cc1cccc2ccccc12` [Cmpd 927, Terbinafine HCl] the value was “++++”; for `CN1CCN2c3ncccc3Cc3ccccc3C2C1` (centres unmarked) [Cmpd 679, Mirtazapine], “++++”; for `Clc1ccc(COC(Cn2ccnc2)c2ccc(Cl)cc2Cl)cc1` (centres unmarked) [Cmpd 403, Econazole nitrate], “+++”. As to `CC(C)=CCC/C(C)=C/CC/C(C)=C/CC/C(C)=C/CC1=C(C)C(=O)c2ccccc2C1=O` [Cmpd 652, Menaquinone 4], the “Compound Myofibroblast Cytotoxicity Activity” value is recorded as “++”. Take `Cc1occc(=O)c1O` [Cmpd 52]: the “Compound Myofibroblast Cytotoxicity Activity” value is recorded as “++”. Consider `Cc1cnc(Nc2ccc(OCCN3CCCC3)cc2)nc1Nc1cccc(S(=O)(=O)NC(C)(C)C)c1` [Cmpd 937, TG101348 (SAR302503)], for which the “Compound Myofibroblast Cytotoxicity Activity” value is “++++”. On to `Cl.OC(c1cc(C(F)(F)F)nc2c(C(F)(F)F)cccc12)C1CCCCN1` (centres unmarked) [Cmpd 644, Mefloquine hydrochloride], for which the “Compound Myofibroblast Cytotoxicity Activity” value was “++++”. To `C#C[C@]1(OC(C)=O)CC[C@H]2[C@@H]3CCC4=C[C@@H](OC(C)=O)CC[C@@H]4[C@H]3CC[C@@]21C` [Cmpd 439, Ethynodiol diacetate] belongs “++”.

Take `COC(=O)C1=C(C)NC(C)=C(C(=O)OCC(C)C)C1c1ccccc1[N+](=O)[O-]` (centres unmarked) [Cmpd 717, Nisoldipine]: the “Compound Myofibroblast Cytotoxicity Activity” value is “+++”. On to `O=C1c2c(O)ccc(O)c2C(=O)c2c(NCCNCCO)ccc(NCCNCCO)c21` [Cmpd 682, Mitoxantrone HCl], for which the “Compound Myofibroblast Cytotoxicity Activity” value is recorded as “+++++”. `CNCC[C@H](Oc1cccc2ccccc12)c1cccs1` [Cmpd 397, Duloxetine HCl]: the “Compound Myofibroblast Cytotoxicity Activity” value is reported as “+++++”. For `Cc1nnc(NS(=O)(=O)c2ccc(N)cc2)s1` [Cmpd 896, Sulfamethizole] the value was “++++”. For `C[N+](C)(C)CCO.O=C([O-])C(O)C(O)C(=O)O` (centres unmarked) [Cmpd 257, Choline bitartrate] the value was “+++”; for `CC(=O)OCC(CCn1cnc2cnc(N)nc21)COC(C)=O` [Cmpd 447, Famciclovir], “+++”; for `CC1(C)O[C@@H]2C[C@H]3[C@@H]4C[C@H](F)C5=CC(=O)C=C[C@]5(C)[C@H]4[C@@H](O)C[C@]3(C)[C@]2(C(=O)CO)O1` [Cmpd 461, Flunisolide], “++”. For `Oc1c(I)cc(Cl)c2cccnc12` [Cmpd 281, Clioquinol], the “Compound Myofibroblast Cytotoxicity Activity” value is recorded as “++”. To `C[C@]12CC[C@@H]3c4ccc(O)cc4CC[C@H]3[C@@H]1CC[C@@H]2OC(=O)CCC1CCCC1` [Cmpd 430, Estradiol Cypionate] belongs “+++”. For `C/C=C/C=C/C(=O)O` [Cmpd 881, Sorbic acid] the value was “++”; for `Cc1cccc(CN2CCN(C(c3ccccc3)c3ccc(Cl)cc3)CC2)c1.Cl.Cl` (centres unmarked) [Cmpd 641, Meclizine 2HCl], “++”; for `Cc1cn(-c2cc(NC(=O)c3ccc(C)c(Nc4nccc(-c5cnccn5)n4)c3)cc(C(F)(F)F)c2)cn1` [Cmpd 818, Radotinib(IY-5511)], “++++”.

Turning to `CCOC(=O)C=Cc1ccccc1` [Cmpd 437, Ethyl Cinnamate], the “Compound Myofibroblast Cytotoxicity Activity” value is listed as “++”. To `CC(C)(C)c1ccc(S(=O)(=O)/C=C/C#N)cc1` [Cmpd 157, Bay 11-7085] belongs “+++++”.

`Cc1cc(O)c2c(c1)C(=O)c1cc(O)cc(O)c1C2=O` [Cmpd 415, Emodin (6-Methyl-1,3,8-trihydroxyanthraquinone)]: the “Compound Myofibroblast Cytotoxicity Activity” value is recorded as “++”. For `C=C(C)[C@@H]1CC=C(C)C(=O)C1` [Cmpd 24, (R)-(−)-Carvone], the “Compound Myofibroblast Cytotoxicity Activity” value was “++”. Take `CC(=O)O[C@]1(C(C)=O)CC[C@H]2[C@@H]3C[C@H](C)C4=CC(=O)CC[C@]4(C)[C@H]3CC[C@@]21C` [Cmpd 643, Medroxyprogesterone acetate]: the “Compound Myofibroblast Cytotoxicity Activity” value was “++”. For `Cc1ccc(C(=O)N(CCCN)[C@@H](c2nc3cc(Cl)ccc3c(=O)n2Cc2ccccc2)C(C)C)cc1` [Cmpd 543, Ispinesib (SB-715992)] the value was “+++++”; for `C[C@H](CCC(=O)O)[C@H]1CC[C@H]2[C@@H]3[C@H](O)C[C@@H]4C[C@H](O)CC[C@]4(C)[C@H]3CC[C@]12C` [Cmpd 245, Chenodeoxycholic Acid], “+++”; for `COc1cc2nccc(Oc3ccc(NC(=O)C4(C(=O)Nc5ccc(F)cc5)CC4)cc3)c2cc1OC.O=C(O)C[C@H](O)C(=O)O` [Cmpd 199, Cabozantinib malate (XL184)], “++”. As to `CCCCCCCC/C=C\CCCCCCCC(=O)OCC(C[N+](C)(C)C)OC(=O)CCCCCCC/C=C\CCCCCCCC.[Cl-]` (centres unmarked) [Cmpd 33, 1,2-Dioleoyl-3-trimethylammoniumpropane (chloride)], the “Compound Myofibroblast Cytotoxicity Activity” value is on record as “+++”. To `C=C1CC[C@H](O)C/C1=C/C=C1\CCC[C@]2(C)[C@@H]([C@H](C)/C=C/[C@H](C)C(C)C)CC[C@@H]12` [Cmpd 1008, Vitamin D2 (Ergocalciferol)] belongs “+++”; to `O=C(O)Cc1ccc(-c2ccccc2)cc1` [Cmpd 60, 4-Biphenylacetic acid], “++”; to `CCCCCCCCCCCCOS(=O)(=O)O` [Cmpd 871, Sodium dodecyl sulfate], “+++++”. To `CC1(C)Cc2c(-c3ccccc3)c(-c3ccc(Cl)cc3)c(CC(=O)O)n2C1` [Cmpd 588, Licofelone] belongs “+++”; to `COc1cc(NS(C)(=O)=O)ccc1Nc1c2ccccc2nc2ccccc12.Cl` [Cmpd 116, Amsacrine hydrochloride], “+++”; to `O[C@H]1[C@H](O)[C@@H](O)[C@H](O)[C@@H](O)[C@H]1O` [Cmpd 692, myo-Inositol], “++++”. For `CCOC(=O)C1=C(C)NC(C)=C(C(=O)OC)C1c1cccc(Cl)c1Cl` (centres unmarked) [Cmpd 449, Felodipine], the “Compound Myofibroblast Cytotoxicity Activity” value was “+++”. For the molecule `COc1cc2ncnc(Nc3ccc(F)c(Cl)c3)c2cc1NC(=O)/C=C/CN1CCCCC1` [Cmpd 313, Dacomitinib (PF299804, PF299)], the “Compound Myofibroblast Cytotoxicity Activity” value was “+++”. To `CC(C)NCC(O)COc1ccc(CC(N)=O)cc1` (racemic) [Cmpd 14, (±)-Atenolol] belongs “+++”; to `CC(=O)Oc1ccccc1C(=O)Nc1ncc([N+](=O)[O-])s1` [Cmpd 718, Nitazoxanide], “+++”.

Take `CCCCC(=O)O[C@H]1CC[C@H]2[C@@H]3CCc4cc(O)ccc4[C@H]3CC[C@]12C` [Cmpd 431, Estradiol valerate]: the “Compound Myofibroblast Cytotoxicity Activity” value is listed as “+++”. To `CC(C)(C)NCC(O)c1ccc(O)c(CO)c1` (centres unmarked) [Cmpd 847, Salbutamol] belongs “++”; to `Cc1c(Cl)cccc1Nc1ccccc1C(=O)O` [Cmpd 955, Tolfenamic Acid], “++”. As to `C=CCNC1=C2C[C@@H](C)C[C@H](OC)[C@H](O)[C@@H](C)/C=C(\C)[C@H](OC(N)=O)[C@@H](OC)/C=C\C=C(/C)C(=O)NC(=CC1=O)C2=O` [Cmpd 40, 17-AAG (KOS953)], the “Compound Myofibroblast Cytotoxicity Activity” value is listed as “+++”.

Consider `CC1(C)S[C@@H]2[C@H](NC(=O)[C@H](N)c3ccccc3)C(=O)N2[C@H]1C(=O)OCOC(=O)[C@@H]1N2C(=O)C[C@H]2S(=O)(=O)C1(C)C` [Cmpd 902, Sultamicillin], for which the “Compound Myofibroblast Cytotoxicity Activity” value is listed as “++”. To `NC(CO)C(=O)NNCc1ccc(O)c(O)c1O` (centres unmarked) [Cmpd 162, Benserazide HCl] belongs “++”. For `COc1ccc(CC2c3cc(OC)c(OC)cc3CC[N+]2(C)CCC(=O)OCCCCCOC(=O)CC[N+]2(C)CCc3cc(OC)c(OC)cc3C2Cc2ccc(OC)c(OC)c2)cc1OC` (centres unmarked) [Cmpd 142, Atracurium Besylate] the value was “+++”; for `CCN(CCCCOC(=O)c1ccc(OC)c(OC)c1)C(C)Cc1ccc(OC)cc1.Cl` (centres unmarked) [Cmpd 638, Mebeverine Hydrochloride], “++”; for `COc1ccc(OC)c(C(O)CNC(=O)CN)c1` (centres unmarked) [Cmpd 673, Midodrine (hydrochloride)], “++++”.

For `CC[C@]1(O)C[C@@H]2CN(CCc3c([nH]c4ccccc34)[C@@](C(=O)OC)(c3cc4c(cc3OC)N(C)[C@H]3[C@@](O)(C(=O)OC)[C@H](OC(C)=O)[C@]5(CC)C=CCN6CC[C@]43[C@@H]65)C2)C1` [Cmpd 1002, Vinblastine sulfate], the “Compound Myofibroblast Cytotoxicity Activity” value is listed as “++”. For `CCOc1nc2cccc(C(=O)OCc3oc(=O)oc3C)c2n1Cc1ccc(-c2ccccc2-c2noc(=O)[nH]2)cc1` [Cmpd 149, Azilsartan Medoxomil] the value was “++”.
